Reference: BigSolDB 2.1

O=C(O)CCCC[C@@H]1SC[C@@H]2NC(=O)N[C@@H]21
Details	solubility (mole fraction)
in DMF, 298.65 K	0.00356
in DMF, 303.25 K	0.00413
in DMF, 308.15 K	0.00497
in DMF, 313.15 K	0.00603
in DMF, 318.15 K	0.0075
in DMF, 323.25 K	0.00902
in DMF, 328.15 K	0.0107
in DMF, 333.15 K	0.0128
in DMSO, 298.15 K	0.0378
in DMSO, 303.15 K	0.0425
in DMSO, 308.15 K	0.0479
in DMSO, 313.15 K	0.053
in DMSO, 318.05 K	0.0582
in DMSO, 322.75 K	0.0633
in DMSO, 327.65 K	0.0687
in DMSO, 332.85 K	0.0748
in acetic acid, 298.15 K	0.00226
in acetic acid, 303.15 K	0.00283
in acetic acid, 308.15 K	0.0035
in acetic acid, 313.25 K	0.00424
in acetic acid, 317.95 K	0.00509
in acetic acid, 323.45 K	0.00646
in acetic acid, 327.85 K	0.00766
in acetic acid, 333.25 K	0.00922
in ethanol, 298.15 K	6.35e-05
in ethanol, 302.95 K	8.69e-05
in ethanol, 308.85 K	0.000133
in ethanol, 313.95 K	0.000176
in ethanol, 318.45 K	0.00023
in ethanol, 323.55 K	0.000309
in ethanol, 329.35 K	0.000442
in ethanol, 333.85 K	0.000582
in methanol, 298.15 K	6.92e-05
in methanol, 302.75 K	9.37e-05
in methanol, 308.05 K	0.000143
in methanol, 313.25 K	0.000208
in methanol, 317.85 K	0.000298
in methanol, 323.55 K	0.00046
in methanol, 327.65 K	0.000601
in methanol, 332.95 K	0.000862
in water, 298.15 K	4.97e-06
in water, 303.15 K	8.18e-06
in water, 308.05 K	1.28e-05
in water, 312.75 K	2.06e-05
in water, 318.55 K	3.52e-05
in water, 323.15 K	5.42e-05
in water, 328.95 K	9.12e-05
in water, 332.95 K	0.000129
